Experimental data from patent US7737125B2, “LNA antagonists targeting the androgen receptor” (Enzon Pharamaceuticals, Inc., priority 2007, dated 2010).
Strand notation (5' to 3'): a small letter for the sugar, then the base; units joined by * are phosphorothioate-linked, units joined directly phosphodiester-linked; [ ] holds rarer units or linkages, { } end groups; capitals alone tell only the bases. l = locked nucleic acid (LNA); [5mC] = 5-methylcytosine; d = 2'-deoxy (DNA)

What was measured:
[1] = system: Caspase 3/7 activity in LNCaP cells; assay: Caspase 3/7 activity (Caspase-Glo 3/7) in LNCaP cells; format: cell-based, human; details: 4 nM and 16 nM; 14 h, 48 h and 72 h (FIG. 15)
Description: (§1) LNCaP prostate cancer cells and A549 lung cancer cells were seeded to a density of 150,000 cells per well in a 6-well plate the day prior to transfection. A549 cells were cultured in DMEM (Sigma)+10% fetal bovine serum (FBS)+2 mM Glutamax I+gentamicin (25 μg/ml) whereas LNCaP cells were cultured in RPMI 1640 Medium (Sigma)+10% fetal bovine serum CUBS)+2 mM Glutamax I+gentamicin (25 μg/ml). The next day medium was removed followed by addition of 1.2 ml OptiMEM containing 5 μg/ml Lipofectamine2000 (Invitrogen). Cells were incubated for 7 min before adding 0.3 ml oligonucleotides diluted in OptiMEM. The final oligonucleotide concentrations were 4 nM and 16 nM. After 4 hours of treatment, media was removed and cells were trypsinized and seeded to a density of 5000 cells per well in a white 96 well plate (Nunc) in 100 μl media. Caspase 3/7 activity was measured at the times indicated by adding 100 μl Caspase-Glo 3/7 assay (Promega). Caspase 3/7 activity was measured using a luminometer. The caspase 3/7 activities were measured at three different time points 14 h, 48 h and 72 h (See FIG. 15 and FIG. 16).

[2] = system: human androgen receptor mRNA; assay: AR mRNA knock-down in A549, 24 h post-transfection, 0.5-16 nM (qPCR); format: cell-based; details: 0.5, 1, 2, 4, 8 and 16 nM, 24 h post-transfection (FIG. 12)
Description: FIG. 12: AR mRNA in A549, 24 h post-transfection
(§2) Oligonucleotides were evaluated for their potential to knock down androgen receptor mRNA expression at concentrations of 0.5, 1, 2, 4, 8 and 16 nM (see FIG. 11). LNCaP prostate cancer cells and A549 lung cancer cells were seeded to a density of 150,000 cells per well in a 6-well plate the day prior to transfection. A549 cells were cultured in DMEM (Sigma)+10% fetal bovine serum (FBS)+2 mM Glutamax I+gentamicin (25 μg/ml). LNCaP cells were cultured in RPMI 1640 Medium (Sigma)+10% fetal bovine serum (FBS)+2 mM Glutamax I+gentamicin ([…]). On the following day, medium was removed followed by addition of 1.2 ml OptiMEM containing 5 μg/ml Lipofectamine2000 (Invitrogen). Cells were incubated for 7 min before adding 0.3 ml oligonucleotides diluted in OptiMEM. The final oligonucleotide concentrations were 0.5, 1, 2, 4, 8 and 16 nM. Cells were washed and serum-containing media was added. After oligomer treatment cells were allowed to recover for 20 hours before they were harvested for RNA analysis. The procedure for RNA isolation, cDNA synthesis and qPCR were as described in Examples 5, 6 and 7.

[3] = system: LNCaP prostate cancer cells; assay: Measurement of proliferating viable cells (MTS assay), LNCaP; format: cell-based, human; details: 4 nM and 16 nM, time course post-transfection (FIG. 14)
Description: (§3) LNCaP prostate cancer and A549 lung cancer cells were seeded to a density of 150,000 cells per well in a 6-well plate the day prior to transfection. A549 cells were cultured in DMEM (Sigma)+10% fetal bovine serum (FBS)+2 mM Glutamax I+gentamicin (25 μg/ml) whereas LNCaP cells were cultured in RPMI 1640 Medium (Sigma)+10% fetal bovine serum (FBS)+2 mM Glutamax I+gentamicin (25 μg/ml). On the following day, medium was removed followed by addition of 1.2 ml OptiMEM containing 5 μg/ml Lipofectamine2000 (Invitrogen). Cells were incubated for 7 min before adding 0.3 ml oligonucleotides diluted in OptiMEM. The final oligonucleotide concentrations were 4 nM and 16 nM. After 4 hours of treatment, media was removed and cells were trypsinized and seeded to a density of 5000 cells per well in a clear 96 well plate (Scientific Orange no. 1472030100) in 100 μl media. Viable cells were measured at the times indicated by adding 10 μl the tetrazolium compound [3-(4,5-[…])-5-(3-carboxymethoxyphenyl)-2-(4-sulfophenyl)-2H-tetrazolium, inner salt; MTS] and an electron coupling reagent (phenazine ethosulfate; PES) (CellTiter 96® AQueous One Solution Cell Proliferation Assay, Promega). Viable cells were measured at 490 nm in a Powerwave (Biotek Instruments). The OD490 nm measurements were plotted against time/h. (See FIG. 13 and FIG. 14).

[4] = system: human androgen receptor mRNA; assay: AR mRNA knock-down in LNCaP, 24 h post-transfection, 0.5-16 nM (qPCR); format: cell-based; details: 0.5, 1, 2, 4, 8 and 16 nM, 24 h post-transfection (FIG. 11)
Description: FIG. 11: AR mRNA in LNCaP, 24 h post-transfection
as §2

[5] = system: Caspase 3/7 activity in A549 cells; assay: Caspase 3/7 activity (Caspase-Glo 3/7) in A549 cells; format: cell-based, human; details: 4 nM and 16 nM; 14 h, 48 h and 72 h (FIG. 16)
Description: as §1

[6] = system: mouse androgen receptor mRNA; assay: In vivo knock-down of AR mRNA expression in mouse liver (QPCR); details: nude mice, 100 mg/kg i.v. q3dx4, liver 24 h after last dosing, normalised to mouse GAPDH, relative to saline treated animals
Description: Nude mice were dosed i.v. q3dx4 with 100 mg/kg oligonucleotide (group size of 5 mice). The antisense oligonucleotides (SEQ ID:48, SEQ ID:51, SEQ ID:58, SEQ ID:63, SEQ ID:77) were dissolved in phosphate buffered saline. Animals were sacrificed 24 h after last dosing and liver tissue was sampled and stored in RNA later until RNA extraction and QPCR analysis. Total RNA was extracted and AR mRNA expression in liver samples was measured by QPCR as described in Example 7 using a mouse AR QPCR assay (cat. Mm01238475_m1, Applied Biosystems). Results were normalised to mouse GAPDH (cat. no. 4352339E, Applied Biosystems) and knock-own was quantitated relative to saline treated controls. The data in Table 4 are presented as percentage down-regulation relative to saline treated animals.

A549 lung cancer cells = assay: Measurement of proliferating viable cells (MTS assay), A549; format: cell-based, human; details: 4 nM and 16 nM, time course post-transfection (FIG. 13)
Description: as §3

[7] = system: human androgen receptor mRNA; assay: Inhibition of androgen receptor mRNA expression in A549 cells, real-time PCR after transfection; format: cell-based; details: 16 nM oligonucleotide, AR mRNA normalised to GAPDH, down-regulation relative to mock transfected cells
Description: FIG. 2. Oligonucleotides presented in Table 3 were evaluated for their potential to knockdown the androgen receptor mRNA at concentrations of 1, 4 and 16 nM in A549 cells 24 hours after transfection using Real-time PCR. All results were normalised to GAPDH and inhibition of AR mRNA is shown as percent of untreated control. Results shown are an average of three independent experiments.
A549 The human lung cancer cell line […] was cultured in DMEM (Sigma)+10% fetal bovine serum (FBS)+2 mM Glutamax I+gentamicin (25 μg/ml).
(§4) The cell lines listed in Example 4 were treated with an oligomer using the cationic liposome formulation LipofectAMINE 2000 (Gibco) as transfection vehicle. Cells were seeded in 6-well cell culture plates (NUNC) and treated when 80-90% confluent. Oligomer concentrations used ranged from 1 nM to 16 nM final concentration. Formulation of oligomer-lipid complexes were carried out essentially as described by the manufacturer using serum-free OptiMEM (Gibco) and a final lipid concentration of 5 μg/mL LipofectAMINE 2000. Cells were incubated at 37° C. for 4 hours and treatment was stopped by removal of oligomer-containing culture medium. Cells were washed and serum-containing media was added. After oligomer treatment, cells were allowed to recover for 20 hours before they were harvested for RNA analysis.
(§5) Total RNA was extracted from cells transfected as described above and using the Qiagen RNeasy kit (Qiagen cat. no. 74104) according to the manufacturer's instructions. First strand synthesis was performed using Reverse Transcriptase reagents from Ambion according to the manufacturer's instructions.
(§6) For each sample, the volume of 0.5 •g total RNA was adjusted to 10.8 •l with RNase free H2O and mixed with 2 •l random decamers (50 •M) and 4 •l dNTP mix (2.5 mM each dNTP) and heated to 70° C. for 3 min, after which the samples were rapidly cooled on ice. After cooling the samples on ice, 2 •l 10× Buffer RT, 1 •l MMLV Reverse Transcriptase (100 U/•l) and 0.25 •l RNase inhibitor (10 U/•l) were added to each sample, followed by incubation at 42° C. for 60 min, heat inactivation of the enzyme at 95° C. for 10 min and then cooling of the sample to 4° C.
(§7) The amount of human androgen receptor mRNA in the samples was quantified using the human androgen receptor ABI Prism Pre-Developed TaqMan Assay Reagents (Applied Biosystems cat. no. Hs00171172_m1) according to the manufacturer's instructions.
(§8) Glyceraldehyde-3-phosphate dehydrogenase (GAPDH) mRNA quantity was used as an endogenous control for normalizing any variance in sample preparation.
(§9) The cDNA from the first strand synthesis performed as described in Example 6 was diluted 2-20 times, and analyzed by real time quantitative PCR using Taquman 7500 FAST or 7900 FAST from Applied Biosystems. The primers and probe were mixed with 2× Taqman Fast Universal PCR master mix (2×) (Applied Biosystems Cat. #4364103) and added to 4 μl cDNA to a final volume of 10 μl. Each sample was analysed in duplicate. Standard curves were generated by assaying 2-fold dilutions of a cDNA that had been prepared on material purified from a cell line expressing the RNA of interest. Sterile H2O was used instead of cDNA for the no-template control. PCR program: 95° C. for 30 seconds, followed by 40 cycles of 95° C., 3 seconds, 60° C., 20-30 seconds. Relative quantities of target mRNA were determined from the calculated Threshold cycle using the Applied Biosystems Fast System SDS Software Version 1.3.1.21. or SDS Software Version 2.3.
(§10) Oligonucleotides presented in Table 3 were evaluated for their potential to knock down androgen receptor mRNA expression at concentrations of 1, 4 and 16 nM (see FIGS. 1 and 2).
(§11) The data in Table 3 are presented as percentage down-regulation relative to mock transfected cells at 16 nM. Lower case letters represent DNA monomers, bold, upper case letters represent β-D-oxy-LNA monomers. All cytosine bases in the LNA monomers are 5-methylcytosines. […]

[8] = system: human androgen receptor mRNA; assay: Inhibition of androgen receptor mRNA expression in MCF7 cells, real-time PCR after transfection; format: cell-based; details: 16 nM oligonucleotide, AR mRNA normalised to GAPDH, down-regulation relative to mock transfected cells
Description: FIG. 1. Oligonucleotides presented in Table 3 were evaluated for their potential to knockdown the androgen receptor mRNA at concentrations of 1, 4 and 16 n-M in MCF7 cells 24 hours after transfection using Real-time PCR. All results were normalised to GAPDH and inhibition of AR mRNA is shown as percent of untreated control. Results shown are an average of three independent experiments.
MCF7 The human breast cancer cell line MCF7 was cultured in EagleMEM (Sigma)+10% fetal bovine serum (FBS)+2 mM Glutamax I+1×NEAA+gentamicin (25 μg/ml).
as §4, §5, §6, §7, §8, §9, §10, §11

Substance	Caspase 3/7 activity in LNCaP cells [1]	Knock down of AR mRNA expression in lung cancer cell line A549 [2]	Growth of LNCaP prostate cancer cells (viable cells, OD490 nm vs time) [3]	Knock down of AR mRNA expression in LNCaP prostate cancer cell line [4]	Caspase 3/7 activity in A549 cells [5]	Liver (% KD) of AR mRNA expression ([6]; listed as SEQ ID: 58, 100 mg/kg)	Growth of A549 lung cancer cells (viable cells, OD490 nm vs time) (A549 lung cancer cells)	Liver (% KD) of AR mRNA expression ([6]; listed as SEQ ID: 77, 100 mg/kg)	Percent inhibition of Androgen receptor - A549 [7] [%]	Percent inhibition of Androgen receptor - MCF7 [8] [%]	Liver (% KD) of AR mRNA expression [6]
5′-AsCsCsasasgstststscststscsAsGsC-3′ (antisense lA*l[5mC]*l[5mC]*dA*dA*dG*dT*dT*dT*dC*dT*dT*dC*lA*lG*l[5mC]) [SEQ ID NO: 58, LNA gapmer antisense oligonucleotide]	induce caspase 3/7 activity	potent in knocking down AR mRNA expression	inhibit growth	potent in knocking down AR mRNA expression	induce caspase 3/7 activity	95.2 +/− 1.0%	inhibit growth	–	–	–	–
5′-CsCsCsasasgsgscsascstsgscsAsGsA-3′ (antisense l[5mC]*l[5mC]*l[5mC]*dA*dA*dG*dG*dC*dA*dC*dT*dG*dC*lA*lG*lA) [SEQ ID NO: 77, LNA gapmer antisense oligonucleotide]	induce caspase 3/7 activity	potent in knocking down AR mRNA expression	inhibit growth	potent in knocking down AR mRNA expression	induce caspase 3/7 activity	–	inhibit growth	91.9 +/− 3.9%	–	–	–
5′-CsAsTscscscstsgscststscsasTsAsA-3′ (antisense l[5mC]*lA*lT*dC*dC*dC*dT*dG*dC*dT*dT*dC*dA*lT*lA*lA) [SEQ ID NO: 57, LNA gapmer antisense oligonucleotide]	–	–	–	–	–	–	–	–	88.9	89.5	–
5′-TsTsTsgsascsascsasasgstsgsGsGsA-3′ (antisense lT*lT*lT*dG*dA*dC*dA*dC*dA*dA*dG*dT*dG*lG*lG*lA) [SEQ ID NO: 51, LNA gapmer antisense oligonucleotide]	–	–	–	–	–	–	–	–	–	–	65.0 +/− 12.6%
